# Legend:
# BTK (C481S) = biological target: T1, BTK (C481S) (Homo sapiens, UniProt Q06187, C481S); assay: Kinase assay of BTK (C481S), [33P]-ATP filter-binding, Reaction Biology Corporation; format: biochemical; conditions: 6 nM BTK (C481S), 0.2 mg/ml pEY substrate, 10 μM ATP, 20 min preincubation, 120 min reaction at room temperature
# T1 construct: purchased SignalChem B10-12CH
# Experimental: The kinase activity of BTK (C481S) was assayed at Reaction Biology Corporation. The substrate in the BTK (C481S) reaction, pEY (poly[Glu:Tyr] (4:1)) (Sigma, Cat. #P7244-250MG), was prepared in fresh reaction buffer (20 mM Hepes (pH 7.5), 10 mM MgCl2, 1 mM EGTA, 0.02% Brij35, 0.02 mg/mi BSA, 0.1 mM Na3VO4, 2 mM DTT, 1% DMSO). BTK(C481S) (SignalChem, Cat. #B10-12CH) was delivered into the substrate solution and mixed gently. The final concentrations of BTK (C481S) and the substrate in the reaction mixture were 6 nM and 0.2 mg/ml, respectively. Compounds were tested in 10-point concentration/response mode with 3-fold serial dilution steps starting at 1 μM.
# Compounds in 100% DMSO were delivered into the kinase reaction mixture by acoustic liquid delivery technology (Echo550; nanoliter range) and incubated for 20 min at room temperature. 10 μM [^33P]-ATP (ATP: Sigma, Cat #: A7699; [^33P]-ATP: Hartmann Analytic, Cat #: SCF-301-12) was delivered into the reaction mixture to initiate the reaction. The mixture was incubated for 120 min at room temperature. Radioactivity was detected utilizing a proprietary filter-binding method. Kinase activity data were expressed as the percent remaining kinase activity in test samples compared to vehicle (DMSO) reactions. IC50 values were obtained using GraphPad Prism software.
# Select compounds prepared as described above were assayed according to the biological procedures described herein.
# OCI-LY10 cells = assay: Cell proliferation assay (MTS) in OCI-LY10 cells; format: cell-based; conditions: Homo sapiens; inhibition of OCI-LY10 cells proliferation, 72 h incubation, MTS, absorbance at 490 nm; read-out: OCI-LY10 IC50
# In short: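 BTK-dependent OCI-LY10 proliferation: cells seeded at 10000/well, preincubated 4 h, then compound exposure 72 h at 37° C., 5% CO2. MTS added for 2 h and absorbance read at 490 nm; IC50 derived from the concentration-response.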
# T1 sequence (Q06187 whole entry C481S): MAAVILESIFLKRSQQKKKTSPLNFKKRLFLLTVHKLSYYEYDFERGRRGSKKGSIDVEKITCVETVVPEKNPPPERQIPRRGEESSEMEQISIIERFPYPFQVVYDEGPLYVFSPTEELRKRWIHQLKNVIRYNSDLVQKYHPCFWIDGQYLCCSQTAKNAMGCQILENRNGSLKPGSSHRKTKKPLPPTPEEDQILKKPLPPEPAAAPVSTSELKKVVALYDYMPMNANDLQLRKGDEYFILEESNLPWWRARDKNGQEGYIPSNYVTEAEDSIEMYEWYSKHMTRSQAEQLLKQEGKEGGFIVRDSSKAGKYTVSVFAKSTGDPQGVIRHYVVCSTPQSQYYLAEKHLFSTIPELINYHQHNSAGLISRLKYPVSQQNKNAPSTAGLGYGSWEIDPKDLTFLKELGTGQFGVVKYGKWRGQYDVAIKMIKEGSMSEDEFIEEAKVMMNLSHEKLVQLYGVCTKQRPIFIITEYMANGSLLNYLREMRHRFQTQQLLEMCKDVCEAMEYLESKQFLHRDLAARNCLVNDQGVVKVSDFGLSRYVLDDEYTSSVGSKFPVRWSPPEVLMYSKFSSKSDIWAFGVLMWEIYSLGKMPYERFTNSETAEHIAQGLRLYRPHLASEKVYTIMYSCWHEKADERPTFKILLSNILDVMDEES
IC50 (BTK (C481S)) [nM],IC50 (OCI-LY10 cells) [nM],SMILES
0.45,1,"COc1ccc(F)cc1C(=O)NCc1ccc(-n2cc(C3CCCC3)c3c(=O)[nH]nc(N)c32)cc1 [Example 8, N-(4-(7-amino-3-cyclopentyl-4-oxo-4,5-dihydro-1H-pyrrolo[2,3-d]pyridazin-1-yl)benzyl)-5-fluoro-2-methoxybenzamide]"
0.5,1,"COc1ccc(F)cc1C(=O)NCc1ccc(-c2nn(C3CCCC3)c3c(=O)[nH]nc(N)c23)cc1 [Example 11, N-(4-(4-amino-1-cyclopentyl-7-oxo-6,7-dihydro-1H-pyrazolo[3,4-d]pyridazin-3-yl)benzyl)-5-fluoro-2-methoxybenzamide]"
0.5,1,"COc1ccc(F)cc1C(=O)NCc1ccc(-c2cn(C3CCCC3)c3c(=O)[nH]nc(N)c23)cc1 [Example 17, N-(4-(4-amino-1-cyclopentyl-7-oxo-6,7-dihydro-1H-pyrrolo[2,3-d]pyridazin-3-yl)benzyl)-5-fluoro-2-methoxybenzamide]"
0.91,1,"COc1ccc(F)cc1C(=O)NCc1ccc(-c2nn([C@H]3CCC[C@H]3F)c3c(=O)[nH]nc(N)c23)cc1 [Example 81, N-(4-(4-amino-1-((1S,2R)-2-fluorocyclopentyl)-7-oxo-6,7-dihydro-1H-pyrazolo[3,4-d]pyridazin-3-yl)benzyl)-5-fluoro-2-methoxybenzamide]"

# Reference: patent US20230145305A1, “COMPOUNDS USEFUL AS KINASE INHIBITORS” (Fochon Biosciences, Ltd., priority 2020, published 2023)
